Experimental data as given in patent US9156845B2, “4-(substituted amino)-7H-pyrrolo[2,3-d] pyrimidines as LRRK2 inhibitors” (Pfizer Inc., priority 2012, dated 2015).

Legend:
mutant G2019S LRRK2 = mutant G2019S LRRK2 (Homo sapiens (Human), UniProt Q5S007, G2019S); assay: LRRK2 Lantha Screen kinase assay, mutant enzyme; format: biochemical; settings: geometric mean of 2-5 determinations unless otherwise indicated (a: >=6 determinations; b: single determination)
[1] = target: GST-tagged truncated LRRK2 (Homo sapiens (Human), UniProt Q5S007); assay: LRRK2 Lantha Screen kinase assay; format: biochemical; settings: geometric mean of 2-5 determinations unless otherwise indicated (a: >=6 determinations; b: single determination); read-out: LRRK2 WT IC50
GST-tagged truncated LRRK2, sequence (Q5S007 970-2527): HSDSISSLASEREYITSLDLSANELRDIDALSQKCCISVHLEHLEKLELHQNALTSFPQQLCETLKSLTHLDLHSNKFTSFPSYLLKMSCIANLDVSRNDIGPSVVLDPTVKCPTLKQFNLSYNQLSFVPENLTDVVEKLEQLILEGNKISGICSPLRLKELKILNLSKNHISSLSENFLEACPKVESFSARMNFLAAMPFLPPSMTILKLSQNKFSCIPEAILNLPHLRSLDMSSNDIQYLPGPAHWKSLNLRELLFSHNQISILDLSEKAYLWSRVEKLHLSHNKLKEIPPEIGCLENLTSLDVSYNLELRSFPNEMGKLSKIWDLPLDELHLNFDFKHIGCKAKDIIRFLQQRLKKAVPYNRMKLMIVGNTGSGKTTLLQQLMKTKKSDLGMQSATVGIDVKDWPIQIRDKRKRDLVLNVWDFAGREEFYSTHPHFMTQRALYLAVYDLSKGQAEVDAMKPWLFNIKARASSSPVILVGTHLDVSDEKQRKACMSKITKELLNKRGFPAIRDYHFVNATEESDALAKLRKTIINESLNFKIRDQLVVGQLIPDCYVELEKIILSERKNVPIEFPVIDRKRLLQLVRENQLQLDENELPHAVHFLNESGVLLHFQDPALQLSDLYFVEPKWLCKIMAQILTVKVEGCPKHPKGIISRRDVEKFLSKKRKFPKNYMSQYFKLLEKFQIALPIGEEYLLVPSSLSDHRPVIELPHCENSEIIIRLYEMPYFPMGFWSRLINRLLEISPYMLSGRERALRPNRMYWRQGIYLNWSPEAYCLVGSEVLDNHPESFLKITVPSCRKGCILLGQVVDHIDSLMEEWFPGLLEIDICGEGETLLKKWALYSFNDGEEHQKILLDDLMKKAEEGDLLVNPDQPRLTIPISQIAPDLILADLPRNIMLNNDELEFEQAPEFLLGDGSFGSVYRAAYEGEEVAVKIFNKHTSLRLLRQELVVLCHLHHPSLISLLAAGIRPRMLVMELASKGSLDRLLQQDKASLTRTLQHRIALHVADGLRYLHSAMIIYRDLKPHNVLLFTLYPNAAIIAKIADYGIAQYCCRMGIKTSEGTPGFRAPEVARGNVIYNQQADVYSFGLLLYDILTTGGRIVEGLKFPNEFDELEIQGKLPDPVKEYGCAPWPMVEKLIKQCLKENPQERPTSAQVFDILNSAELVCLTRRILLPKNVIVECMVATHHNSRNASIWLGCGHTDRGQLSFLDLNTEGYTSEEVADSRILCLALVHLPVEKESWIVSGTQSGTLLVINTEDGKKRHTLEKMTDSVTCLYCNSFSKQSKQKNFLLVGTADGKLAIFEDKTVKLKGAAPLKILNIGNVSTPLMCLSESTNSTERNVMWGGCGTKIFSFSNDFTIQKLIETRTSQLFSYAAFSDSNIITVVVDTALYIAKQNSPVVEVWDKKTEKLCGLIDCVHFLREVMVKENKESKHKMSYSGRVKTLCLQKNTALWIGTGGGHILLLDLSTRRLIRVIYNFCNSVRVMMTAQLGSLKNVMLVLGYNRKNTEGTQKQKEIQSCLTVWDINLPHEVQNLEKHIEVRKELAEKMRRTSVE
Protocol: LRRK2 kinase activity was measured using Lantha Screen technology from Invitrogen. GST-tagged truncated LRRK2 from Invitrogen (Cat # PV4874) was incubated with a fluorescein-labeled peptide substrate based upon ezrin/radixin/moesin (ERM), also known as LRRKtide (Invitrogen cat #PR8976A), in the presence of a dose response of compound. Upon completion, the assay was stopped and detected with a terbium labeled anti-phospho-ERM antibody (Invitrogen, cat #PR8975A). […] Aliquots (3.5 μL) of the 100% DMSO dose response were mixed with 46.5 μL water then 1 μL of this mixture was added to the 3 μL substrate mix in the 384-well plate. The kinase reaction was started with 3 μL of a working solution of LRRK2 enzyme at a concentration of 4 μg/mL. […] The reaction was allowed to progress at room temperature for two hours and then stopped with the addition of 7 μL of detection buffer (20 mM Tris pH 7.6, 0.01% NP-40, 0.02% NaN3, 6 mM EDTA with 2 nM terbium labeled anti-phospho-ERM).

mutant G2019S LRRK2, sequence (Q5S007 970-2527 G2019S): as the sequence (Q5S007 970-2527) above, with G1050S counted along it

Row | Structure (SMILES) | IC50 (mutant G2019S LRRK2) | IC50 [1]
1 | COc1cccc(F)c1-c1c[nH]c2ncnc(N3CCOCC3)c12 [Example 190, 5-(2-fluoro-6-methoxyphenyl)-4-(morpholin-4-yl)-7H-pyrrolo[2,3-d]pyrimidine] | 34 nM | 25 nM
2 | Cc1cc(-c2c[nH]c3ncnc(N4CCOCC4)c23)sn1 [Example 192, 5-(3-methyl-1,2-thiazol-5-yl)-4-(morpholin-4-yl)-7H-pyrrolo[2,3-d]pyrimidine] | 73 nM | 23 nM
3 | COc1ccc(F)c(Cl)c1-c1c[nH]c2ncnc(N3CCOCC3)c12 [Example 193, 5-(2-chloro-3-fluoro-6-methoxyphenyl)-4-(morpholin-4-yl)-7H-pyrrolo[2,3-d]pyrimidin] | 51 nM | 47 nM
4 | N#Cc1cccc(-c2c(C(F)F)[nH]c3ncnc(N4CCOCC4)c23)c1 [Example 198, 3-[6-(Difluoromethyl)-4-(morpholin-4-yl)-7H-pyrrolo[2,3-d]pyrimidin-5-yl]benzonitrile] | 1080 nM | 127 nM
5 | C1=C(c2c[nH]c3ncnc(N4CCOCC4)c23)COCC1 [Example 199, 5-(5,6-Dihydro-2H-pyran-3-yl)-4-(morpholin-4-yl)-7H-pyrrolo[2,3-d]pyrimidine] | 351 nM | 97.8 nM
6 | C1=C(c2c[nH]c3ncnc(N4CCOCC4)c23)CCCO1 [Example 200, 5-(3,4-Dihydro-2H-pyran-5-yl)-4-(morpholin-4-yl)-7H-pyrrolo[2,3-d]pyrimidine] | 167 nM | 76.7 nM
7 | c1cc(-c2ncon2)cc(-c2c[nH]c3ncnc(N4CCOCC4)c23)c1 [Example 201, 4-(Morpholin-4-yl)-5-[3-(1,2,4-oxadiazol-3-yl)phenyl]-7H-pyrrolo[2,3-d]pyrimidine] | 475 nM | 129 nM
8 | Cc1cc(C2CN(c3ncnc4[nH]cc(-c5cccc(C#N)c5)c34)CCO2)on1 (stereo not drawn) [Example 202, 3-{4-[2-(3-Methyl-1,2-oxazol-5-yl)morpholin-4-yl]-7H-pyrrolo[2,3-d]pyrimidin-5-yl}benzonitrile] | 350 nM | 64.7 nM
9 | Cc1c(C#N)cccc1-c1c[nH]c2ncnc(N3CCOCC3)c12 [Example 203, 2-methyl-3-[4-(morpholin-4-yl)-7H-pyrrolo[2,3-d]pyrimidin-5-yl]benzonitrile] | 90.1 nM | 13.2 nM
10 | O=c1cc(-c2c[nH]c3ncnc(N4CCOCC4)c23)cc[nH]1 [Example 204, 4-[4-(morpholin-4-yl)-7H-pyrrolo[2,3-d]pyrimidin-5-yl]pyridin-2(1H)-one] | 32.7 nM | 11.7 nM
11 | c1nc(N2CCOCC2)c2c(-c3cnc4sccn34)c[nH]c2n1 [Example 205, 5-(imidazo[2,1-b][1,3]thiazol-5-yl)-4-(morpholin-4-yl)-7H-pyrrolo[2,3-d]pyrimidine] | 60.5 nM | 15.8 nM
12 | N#Cc1cccc(-c2c[nH]c3ncnc(N4CC5COCC5C4)c23)c1 [Example 207, rel-3-{4-[(3aS,6aS)-tetrahydro-1H-furo[3,4-c]pyrrol-5(3H)-yl]-7H-pyrrolo[2,3-d]pyrimidin-5-yl}benzonitrile] | 687 nM | 223 nM
13 | N#Cc1cccc(-c2c[nH]c3ncnc(N4CCOC(C#N)C4)c23)c1 (stereo not drawn) [Example 209, 4-[5-(3-cyanophenyl)-7H-pyrrolo[2,3-d]pyrimidin-4-yl]morpholine-2-carbonitrile] | 336 nM | 42.2 nM
14 | CC1(C)CN(c2ncnc3[nH]cc(-c4cccc(C#N)c4)c23)CCO1 [Example 210, 3-[4-(2,2-dimethylmorpholin-4-yl)-7H-pyrrolo[2,3-d]pyrimidin-5-yl]benzonitrile] | 304 nM | 35.2 nM
15 | N#Cc1ccc(-c2c[nH]c3ncnc(N4CCOCC4)c23)s1 [Example 211, 5-[4-(morpholin-4-yl)-7H-pyrrolo[2,3-d]pyrimidin-5-yl]thiophene-2-carbonitrile] | 118 nM | 21.9 nM
16 | c1cnn2c(-c3c[nH]c4ncnc(N5CCOCC5)c34)cnc2c1 [Example 212, 5-(imidazo[1,2-b]pyridazin-3-yl)-4-(morpholin-4-yl)-7H-pyrrolo[2,3-d]pyrimidine] | 12.3 nM | 6.26 nM
17 | NC(=O)c1cccc(-c2c[nH]c3ncnc(N4CCOCC4)c23)n1 [Example 215, 6-[4-(morpholin-4-yl)-7H-pyrrolo[2,3-d]pyrimidin-5-yl]pyridine-2-carboxamide] | 79.3 nM | 30.6 nM
18 | c1cnc2c(-c3c[nH]c4ncnc(N5CCOCC5)c34)cnn2c1 [Example 216, 4-(morpholin-4-yl)-5-(pyrazolo[1,5-a]pyrimidin-3-yl)-7H-pyrrolo[2,3-d]pyrimidine] | 119 nM | 35.6 nM
19 | Cc1nc2sccn2c1-c1c[nH]c2ncnc(N3CCOCC3)c12 [Example 218, 5-(6-methylimidazo[2,1-b][1,3]thiazol-5-yl)-4-(morpholin-4-yl)-7H-pyrrolo[2,3-d]pyrimidine] | 135 nM | 37.4 nM
20 | N#Cc1cccc(-c2c[nH]c3ncnc(N4CCOC(c5ccno5)C4)c23)c1 (stereo not drawn) [Example 219, 3-{4-[2-(1,2-oxazol-5-yl)morpholin-4-yl]-7H-pyrrolo[2,3-d]pyrimidin-5-yl}benzonitrile] | 234 nM | 37 nM
21 | Cn1cc(-c2c[nH]c3ncnc(N4CCOCC4)c23)nc1C#N [Example 220, 1-methyl-4-[4-(morpholin-4-yl)-7H-pyrrolo[2,3-d]pyrimidin-5-yl]-1H-imidazole-2-carbonitrile] | 14.7 nM | 7.47 nM
